This passage reports TGI and GI50 results from PubChem BioAssay (NCI).

Holding throughout (assay): NCI-60 cell line screen, 48 h
Experiment [1] concerns XF 498 CNS.
For experiment [2], the system named is SNB-78 CNS.
The test system of experiment [3] is DMS 114 small cell lung.
Experiment [4] relates to DLD-1 colon.
Experiment [5] concerns M19-MEL melanoma.
The test system of experiment [6] is RXF-631 renal.
The test system of experiment [7] is KM20L2 colon.
The test system of experiment [8] is HOP-18 NSCLC.
Experiment [9] relates to MDA-N.
For experiment [10], the system named is SN12K1 renal.

Where “and” joins values, the source holds several entries; their conditions need not be identical. Equal entries are not always repeated.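 Cultured in 96-well plates, cells were exposed to test compound for 48 hours across five concentrations. The concentration for 50% growth inhibition is given as GI50. The concentration for full growth arrest is given as TGI.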

As to `CCOC(=O)C12CCSC1C1(C#N)C(C#N)=CC2(N=P(c2ccccc2)(c2ccccc2)c2ccccc2)n2c(=O)n(-c3ccccc3)c(=O)n21` (centres undefined), the TGI in experiment [1] is 78.3 µM; in experiment [2] it was > 100 µM; in experiment [3], 96.6 µM; in [4], > 100 µM; in experiment [5], 98.5 µM; in [6] it was > 100 µM. Also, the TGI in experiment [7] is > 100 µM.
For `COC1=C(C)C(=O)C2=C(C1=O)C(CO)N1C(C#N)C3CC4C(C1C2N1CCOC41)N3C` (centres undefined), the GI50 was 0.00607 µM in experiment [1]; 0.0484 µM in experiment [8]; 0.0141 µM in experiment [3]; 0.0319 µM in experiment [5]; 0.0261 µM in experiment [7]. Further, the TGI in experiment [1] was 0.0183 µM and 0.0285 µM; in experiment [8], 0.326 µM; in experiment [9], 0.0156 µM and < 0.0374 µM; in [3], 0.0348 µM and 0.0203 µM; in [10], 17.4 µM; in experiment [4] it was 0.836 µM and 5.2 µM. For the same compound, the TGI in [5] is 0.177 µM and 0.11 µM; in [6], 3.4 µM; in experiment [7], 0.83 µM and 0.104 µM.
Regarding `O=C(N[C@@H]1C=CCC[C@@H]1c1ccccc1)OCc1ccccc1`, the TGI in experiment [1] was 35.9 µM; in experiment [8], 46.9 µM; in [2], 93 µM; in experiment [3], 45.1 µM; in experiment [4], > 85.6 µM; in [5], 45.1 µM. Besides, the TGI in [7] stood at 40.6 µM.
With `Cc1ccc(/C=N/NS(=O)(=O)c2ccccc2)cc1`, the TGI in experiment [1], in experiment [8], in experiment [2], in experiment [3], in experiment [4] and in [6] was > 100 µM throughout. Also, in [7], the TGI was > 100 µM.
As for `NC1=NN(c2ccccc2)C(=O)C1/C(=N\NC(=O)c1cc2ccccc2cc1O)C(=O)Nc1nc([N+](=O)[O-])cs1` (centres undefined), the TGI was > 100 µM in experiment [1]; > 100 µM in experiment [8]; > 100 µM in experiment [2]; 45.6 µM in [3]; > 77.2 µM in experiment [4]; > 82.9 µM in experiment [5]. In addition, the TGI was > 71.7 µM in [6] and > 100 µM in [7].
With `CN(C)C(=S)/N=c1\ssc(=S)n1-c1ccccc1`, the TGI is 27.9 µM in [1]; > 100 µM in experiment [8]; 40 µM in [2]; 31.1 µM in [3]; 26.9 µM in experiment [4]; 30.4 µM in experiment [5]. For the same compound, the TGI in [7] was determined as 33.2 µM.
On to `CN(C)CCNC(=O)c1cccc2cc([N+](=O)[O-])ccc12`, for which the TGI in experiment [1] is 1.04 µM; in experiment [8], 4.4 µM; in [2], 1.61 µM; in [9], 6.23 µM; in experiment [3], 0.743 µM; in experiment [4] it was 1.55 µM. Besides, the TGI turned out to be 0.902 µM in [5] and 0.722 µM in experiment [7].
With `O=C(O)c1c([N+](=O)[O-])cc(C(F)(F)F)cc1[N+](=O)[O-]`, the TGI in [1], in [2], in [5], in experiment [6] and in [7] was > 100 µM throughout.
On to `COc1ccc2nc3ccccc3c(NCCCCCN(CCCl)CCCl)c2c1`, for which the TGI is 0.0717 µM in experiment [1]; > 27.3 µM in experiment [8]; 2.96 µM in [2]; 0.793 µM in experiment [4]; 1.02 µM in [7].
Consider `c1ccc(CCCNc2nnnc3ccccc23)cc1`, for which the TGI in [9] is > 100 µM.
With `CCOc1ccccc1NC(=O)C(=O)C(C(=O)c1ccc2ccccc2c1)C1OC(=O)c2ccccc21` (centres undefined), the TGI in experiment [8] was 36.3 µM; in experiment [2], 75.8 µM; in [3] it was 33.6 µM; in experiment [4], 33.4 µM; in [6] it was 22.4 µM; in [7] it was 77 µM.
As for `COc1ccc2[nH]c3c(C)c4cc[n+](C)cc4c(C)c3c2c1`, the GI50 in [2] is 0.478 µM and 0.243 µM; in experiment [9] it was 9.89 µM and 2.19 µM and 14.7 µM; in experiment [3] it was 0.104 µM; in experiment [10], 0.146 µM; in [4], 0.889 µM and 0.835 µM; in [5], 0.327 µM. In addition, the GI50 in experiment [7] is 1.68 µM and 1.35 µM. The TGI in experiment [9] is > 100 µM and 84.9 µM and 63 µM; in [3], 2.52 µM and 1.72 µM and 1.56 µM; in experiment [10], 2.96 µM and 2.75 µM and 1.85 µM; in [5] it was 3.69 µM and 2.48 µM and 2.89 µM; in experiment [7], 34.2 µM [middle of 4 runs].
As to `CCC(C(=O)c1cccs1)C(O)(C(F)(F)F)C(F)(F)F` (centres undefined), in experiment [9], the TGI is > 100 µM.
Regarding `O=c1c2cc(Br)ccc2nc(-c2ccccc2)n1NCC1(O)OCC(O)C(O)C1O` (centres undefined), the TGI in experiment [2], in experiment [3], in experiment [5] and in experiment [7] was > 100 µM in each case.
Take `O=C(c1ccco1)c1ccccc1C(=O)c1ccco1`: the TGI in experiment [1], in experiment [8], in experiment [2], in [3], in [4] and in experiment [5] was > 100 µM throughout. In addition, the TGI in [6] and in experiment [7] was > 100 µM each time.
As for `CSc1c(S(C)=O)[nH]c2cc(Br)cc(Br)c12` (centres undefined), the TGI in [8] came to 80.5 µM; in [2], 57 µM; in [4] it was 51.9 µM; in experiment [5], 75.4 µM.
